Laboratory results taken from patent US20240207241A1, “Method for Promoting Functional Cure of AIDS by Reducing HIV Reservoir with Lenalidomide” (priority 2022, published 2024).

Assays:
[1] = test system: PBMCs derived from HIV-1 patients; assay: Cytokines in supernatant of PBMCs from HIV-1 patients (cytometric bead array); assay type: cell-based, human; settings: PBMCs co-cultured with lenalidomide 24 hrs vs control group
Method: The in-vitro regulatory effect of lenalidomide was verified as follows. PBMCs were separated from peripheral blood donated by HIV-1 patients, and divided into a control group and an experimental group. The control group was cultured alone, and the experimental group was co-cultured with lenalidomide. After 24 hrs, the supernatant was taken for cytokine detection. The level of cytokines in the supernatant was measured by a cytometric bead array kit.

U1 cells = assay: CCK8 survival rate of U1 cells; assay type: cell-based; settings: lenalidomide 0.5, 1, 2, 5, 10, and 20 μmol/L, 24 hrs
Method: CCK8 was used to evaluate the safety of lenalidomide when U1 cells were treated with it in vitro. After U1 cells were treated with various concentrations of lenalidomide (0.5, 1, 2, 5, 10, and 20 μmol/L) for 24 hrs, the survival rate of U1 cells was detected by CCK8 kit. […] There is no significant difference between the control group and various concentration groups and between the various concentration groups. Lenalidomide has a high safety when acting on latent cell lines in vitro.

latent HIV cell line U1 = assay: P24 ELISA in supernatant of U1 cells stimulated with latent activator; assay type: cell-based; settings: pretreated 1, 2, and 5 μmol/L lenalidomide 24 hrs
Method: U1 cells were pretreated with various concentrations of lenalidomide (1, 2, and 5 μmol/L) for 24 hrs, and then the U1 cells pre-treated with lenalidomide were stimulated with a latent activator (TNF-a, PMA, or LPS). The U1 cells in the negative control group were cultured alone, and the U1 cells in the positive control group were not pretreated with lenalidomide. The activation of P24 protein in the supernatant of latent cells U1 was detected by ELISA. […] Compared with the positive control group, the P24 contents decline in the supernatants of the three experimental groups pretreated with 1, 2, and 5 μmol/L lenalidomide, and the difference is statistically significant (P=0.0029, 0.0019, and 0.0017, B in FIG. 3). The difference between various concentrations of lenalidomide groups is not obvious. (2) In the experiment where TNF-α of 20 μg/ml is used as the latent activator, similar results are observed. […] (3) The study of endotoxin (LPS, 10 μg/ml) as a latent activator is rare.

C11 cells = assay: GFP activation of C11 cells by supernatant of PBMCs treated with lenalidomide; assay type: cell-based; settings: supernatant of lenalidomide group; control group 23.17%
Source text: (§1) Lenalidomide has a powerful immunomodulatory effect, and can inhibit the release of pro-inflammatory cytokines in PBMCs derived from HIV patients in vitro and promote the secretion of anti-inflammatory cytokine IL-10. However, whether this degree of immunomodulation can inhibit HIV replication was not confirmed. The latent cell lines J-lat10.6 and C11 cells were used for the experiment. The supernatants of the experimental group and control group were used to stimulate J-lat10.6 and C11 cells, respectively. […] Lenalidomide can regulate the release of inflammatory cytokines in PBMCs from HIV-1 patients in vitro, and this bypass pathway can inhibit virus reactivation in HIV-1 latent cell lines.

[2] = test system: HIV-1 latent cell line U1; assay: Viral mRNA expression in U1 cells activated with LPS; assay type: cell-based; settings: lenalidomide 2 μmol/L pretreatment 24 hrs
Method: After the HIV-1 latent cell line is activated by activator, the expression of viral mRNA in the cells is increased, causing the production of virions. […] The U1 cells were divided into three groups. The negative control group was added with the same amount of culture medium. In the positive control group, cells were pretreated with the culture medium, and LPS was added as an activator after 24 hrs. In the experimental group, lenalidomide (2 μmol/L) was added to pretreat the cells for 24 hrs and then LPS was added to activate the cells. […] (2) The expression levels of multi-spliced RNA, single-spliced RNA and non-spliced RNA in U1 were also detected.

HIV reservoir = assay: Clinical cohort: indicators of HIV reservoir (CA HIV RNA) in PBMCs extracted from patients; assay type: in vivo, human
Method: HIV patients with CM after antiretroviral therapy (ART) were recruited. These participants had central damage after receiving standard anti-fungal therapy, elevated cerebrospinal fluid (CSF) protein level, age of 18 years or more, and plasma HIV RNA of <50 copies/ml and CD4 T cell count of >100 cells/mm3 after receiving ART for at least 48 weeks. Lenalidomide (25 mg) was orally administered at days 1 to 21 in a 28-day cycle, and ART was continued for 48 weeks. The participants were followed up at 7 points (base line 0w, 4w, 8w, 12w, 24w, 36w, and 48w). Inflammatory cytokines in CSF and peripheral blood were detected at each follow-up point, and PBMCs were extracted from the patients and detected for indicators of HIV reservoir. […] For CA HIV-RNA, lenalidomide has a great influence. […] The subjects Nos. 110 and 113 have a decline that exceeds 2 log order of magnitude.

[3] = Clinical cohort: inflammatory markers and cytokines in peripheral blood and CSF of HIV patients on lenalidomide; assay type: in vivo, human
Method: HIV patients with CM after antiretroviral therapy (ART) were recruited. […] Lenalidomide (25 mg) was orally administered at days 1 to 21 in a 28-day cycle, and ART was continued for 48 weeks. The participants were followed up at 7 points (base line 0w, 4w, 8w, 12w, 24w, 36w, and 48w). Inflammatory cytokines in CSF and peripheral blood were detected at each follow-up point, and PBMCs were extracted from the patients and detected for indicators of HIV reservoir.

J-lat10.6 cells = assay: GFP activation of J-lat10.6 cells by supernatant of PBMCs treated with lenalidomide; assay type: cell-based; settings: supernatant added with lenalidomide; control supernatant activates GFP by 51.7%
Source text: as §1

[4] = test system: HIV-1 primary cell CD8-PBMCs; assay: Virus reactivation in HIV-1 primary cells CD8-PBMCs (intracellular P24 by flow cytometry, CA HIV RNA by RT-PCR); assay type: cell-based, human
Method: Lenalidomide is confirmed to inhibit the transcription of virus in HIV-1 latent cell line, and whether it has the same effect in HIV primary cells is unknown. CD8-PBMCs were divided into an experimental group and a positive control group and treated with or without lenalidomide for 5 days. Both groups were supplemented with LPS irregularly. In the negative control group, the same amount of DMSO was added for control culture throughout the whole process. After 5 days, the cells were broken, and the difference in expression of intracellular P24 protein in CD8-PBMCs was detected by flow cytometry. As shown in A in FIG. 5, in the positive control group, the intracellular HIV-1 core P24 in CD8-PBMCs reaches 9.76% after the continuous action of activator. […] The differences in the expression of CA HIV RNA in the five samples were also detected.

[5] = peripheral blood, after lenalidomide treatment

For `Nc1cccc2c1CN(C1CCC(=O)NC1=O)C2=O` (stereo not drawn) [lenalidomide], the IL-6 in supernatant [1] was “decrease significantly”, the IL-10 in supernatant [1] was “increases significantly” and the TNF-α in supernatant [1] was “decrease significantly”. The “survival rate of U1 cells” value (U1 cells) was “less affected”, the “P24 content in supernatant vs positive control group” value (latent HIV cell line U1; LPS 10 μg/ml) was “significantly lower” and the “P24 content in supernatant vs positive control group” value (latent HIV cell line U1; PMA 20 nmol/L 24 hrs) was “decline”. The “P24 content in supernatant vs positive control group” value (latent HIV cell line U1; TNF-α 20 μg/ml) was “significantly lower”, the “GFP activation of C11 cells” value (C11 cells) was 8.09% and the “expression level of multi-spliced RNA” value ([2]; then LPS) was “significantly inhibits”. For the same molecule, the “expression level of non-spliced RNA” value ([2]; then LPS) was “significantly inhibits”, the “expression level of single-spliced RNA” value ([2]; then LPS) was “significantly inhibits” and the “mRNA level of Gag” value ([2]; then LPS 10 μg/ml 24 hrs) was “basically inhibited”. The “mRNA level of Rev protein” value ([2]; then LPS 10 μg/ml 24 hrs) was “basically inhibited”, the “CA HIV-RNA” value (HIV reservoir; 13 patients, from the 24th week, more obvious at the 48th week) was “declines obviously” and the “decline of CA RNA” value (HIV reservoir; subjects Nos. 110 and 113) was “exceeds 2 log order of magnitude”. For the same molecule, the “IL-6 level in CSF” value ([3]; CSF) was “significantly reduces”, the “TNF-a level in CSF” value ([3]; CSF) was “significantly reduces” and the IL-6 [3, 5] was “decrease significantly”. The TNF-a [3, 5] was “decrease significantly”, the “CRP of HIV subjects” value ([3]; peripheral blood, lenalidomide 25 mg oral days 1 to 21 of 28-day cycle, after 7 weeks) was “decrease” and the “D-dimer of HIV subjects” value ([3]; peripheral blood, lenalidomide 25 mg oral days 1 to 21 of 28-day cycle, after 12 weeks) was “decrease”. For the same molecule, the “J-lat10.6 GFP” value (J-lat10.6 cells) was 24.21%, the “expression of intracellular antigen P24” value ([4]; 5 days with lenalidomide and LPS, positive control 9.76%, DMSO control 0.73%) was 4.15% and the “decrease of average amount of CA HIV-1 RNA vs positive control group” value ([4]; five samples, RT-PCR) was 0.49 time.
